Test results: US6531496B1 (Bayer Aktiengesellschaft, priority 1999, dated 2003)

assay: logP by HPLC (EEC Directive 79/831 Annex V. A8, gradient method); assay type: physicochemical; details: HPLC, gradient method, acetonitrile/0.1% aqueous phosphoric acid; Table 1

Row | Structure (SMILES) | logP
1 | COC=C(C(=O)OC)c1ccccc1OC1=NS(=O)(=O)CS1 [Example 5] | 2.03
2 | CC(=NOCc1ccccc1)c1ccc(OC2=NS(=O)(=O)CS2)c(C)c1 [Example 18] | 3.92
3 | CC(C)n1nc(-c2ccc(OC3=NS(=O)(=O)CS3)cc2)ccc1=O [Example 19] | 2.15
4 | O=S1(=O)CSC(Oc2ccc(-c3nnco3)cc2)=N1 [Example 35] | 1.36
5 | O=S1(=O)CSC(Oc2ccc(N=Nc3ccccc3)cc2OC2=NS(=O)(=O)CS2)=N1 [Example 51] | 3.06
6 | CON=C(C)c1ccc(OC2=NS(=O)(=O)CS2)c(C)c1 [Example 16] | 2.88
7 | COC(=O)c1ccc(OC2=NS(=O)(=O)CS2)cc1C(=O)OC [Example 32] | 1.93
8 | O=S1(=O)CSC(Oc2cccc(C3=NOCCO3)c2)=N1 [Example 56] | 1.86
9 | CSc1ccc(OC2=NS(=O)(=O)CS2)cc1C [Example 54] | 2.75
10 | CCON=C(C)c1ccc(OC2=NS(=O)(=O)CS2)c(C)c1 [Example 17] | 3.32
11 | COC(=O)Nc1ccc(C=Cc2cccc(OC3=NS(=O)(=O)CS3)c2)c(NC(=O)OC)c1 [Example 49] | 2.43
12 | O=[N+]([O-])c1ccc(/C=C/c2ccc(OC3=NS(=O)(=O)CS3)cc2)cc1 [Example 50] | 3.3
13 | CN(C)N=Cc1ccc(OC2=NS(=O)(=O)CS2)cc1 [Example 61] | 2.16

Second part, the molecule after the results:

Row | logP | Structure (SMILES)
14 | 4.19 | O=S1(=O)CSC(Oc2ccc(C3=Nc4ccccc4SC(c4ccccc4)C3)cc2)=N1 (stereo not shown) [Example 73]
15 | 1.37 | O=S1(=O)CSC(Oc2cccc(OCCO)c2)=N1 [Example 91]
16 | 2.52 | O=S1(=O)CSC(Oc2ccc(Br)cc2)=N1 [Example 122]
17 | 1.88 | O=S1(=O)CSC(Oc2ccc(OC3=NS(=O)(=O)CS3)cc2)=N1 [Example 88]
18 | 1.82 | COc1ccc(OC2=NS(=O)(=O)CS2)cc1OC [Example 117]
19 | 2.04 | O=S1(=O)CSC(Oc2ccc(F)cc2)=N1 [Example 112]
20 | 3.17 | O=C(c1ccc(Cl)cc1)c1ccc(OC2=NS(=O)(=O)CS2)cc1 [Example 86]
21 | 1.83 | COc1ccc(C(C)=O)c(OC2=NS(=O)(=O)CS2)c1 [Example 75]
22 | 2.91 | O=C(C=Cc1ccccc1)c1ccccc1OC1=NS(=O)(=O)CS1 [Example 130]
23 | 2.72 | O=S1(=O)CSC(Oc2ccc(S(=O)(=O)c3ccc(Cl)cc3)cc2)=N1 [Example 83]
24 | 2.55 | Cc1cnc(Sc2ccc(OC3=NS(=O)(=O)CS3)cc2)nc1C [Example 63]
25 | 2.63 | COc1cc(C=CN2C(=O)c3ccccc3C2=O)ccc1OC1=NS(=O)(=O)CS1 (mixture of isomers) [Example 79]
26 | 2.63 | Cc1ccc(C)c(OC2=NS(=O)(=O)CS2)c1 [Example 125]
27 | 3.22 | O=[N+]([O-])c1ccc(C=Cc2cccc(OC3=NS(=O)(=O)CS3)c2)c([N+](=O)[O-])c1 (mixture of isomers) [Example 81]
28 | 2.49 | O=S1(=O)CSC(Oc2ccccc2C(F)(F)F)=N1 [Example 131]
29 | 3.33 | O=[N+]([O-])c1ccc(Oc2ccc(OC3=NS(=O)(=O)CS3)cc2)c(Cl)c1 [Example 126]
30 | 1.48 | CC(O)c1cccc(OC2=NS(=O)(=O)CS2)c1 (racemic) [Example 80]

same assay, conditions: Table 2

Row | chromatographic logP | Structure (SMILES)
31 | 1.86 | O=S1(=O)CSC(Oc2ccc3[nH]ccc3c2)=N1 [Example 155]
32 | 1.9 | O=S1(=O)CSC(Oc2ccc3c(c2)OCO3)=N1 [Example 142]
33 | 1.92 | Cc1nc2cc(OC3=NS(=O)(=O)CS3)ccc2s1 [Example 148]
34 | 0.48 | O=C1Cc2cc(OC3=NS(=O)(=O)CS3)ccc2O1 [Example 143]

same assay, conditions: Table 4, starting materials of formula (IV)

Row | chromatographic logP | Structure (SMILES)
35 | 1.38 | CSC1=NS(=O)(=O)C(C)S1 (stereo not shown) [IV-3]

same assay, conditions: gradient of acetonitrile/0.1% aqueous phosphoric acid; HPLC, gradient method, acetonitrile/0.1% aqueous phosphoric acid; Table 1

Row | chromatographic logP | Structure (SMILES)
36 | 2.98 | CC(C)(CCl)C(=O)Nc1ccc(OC2=NS(=O)(=O)CS2)c(Cl)c1Cl [Example 13]
37 | 2.65 | CO/N=C(/C)c1cccc(OC2=NS(=O)(=O)CS2)c1 [Example 26]
